Here are results for 34 compounds from ChEMBL document CHEMBL1154073, “Combining selectivity and affinity predictions using an integrated Support Vector Machine (SVM) approach: An alternative tool to discriminate between the human adenosine A(2A) and A(3) receptor pyrazolo-triazolo-pyrimidine antagonists binding sites” (Bioorg Med Chem, 2009).

Test [1] has as its target Adenosine receptor A2a (Homo sapiens, UniProt P29274). Nature of the test: biochemical.
Description: Displacement of [3H]NECA from human adenosine A2A receptor expressed in CHO cells
The target in test [2] is T1, Adenosine receptor A3 (Homo sapiens, UniProt P0DMS8).
T1 sequence (P0DMS8 whole entry): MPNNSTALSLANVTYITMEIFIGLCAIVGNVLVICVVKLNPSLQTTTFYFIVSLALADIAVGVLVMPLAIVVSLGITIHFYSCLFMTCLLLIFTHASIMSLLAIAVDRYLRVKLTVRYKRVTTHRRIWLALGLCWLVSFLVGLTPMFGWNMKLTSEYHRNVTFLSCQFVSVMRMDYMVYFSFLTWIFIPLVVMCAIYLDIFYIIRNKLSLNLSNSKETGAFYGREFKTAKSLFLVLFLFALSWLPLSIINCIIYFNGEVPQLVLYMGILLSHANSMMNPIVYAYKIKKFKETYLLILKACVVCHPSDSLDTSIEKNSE
Nature of the test: Displacement of [3H]NECA from human adenosine A3 receptor expressed in CHO cells. The class given is cell-based. On the technique in general: In a radioligand displacement assay an active substance lowers the binding of a labelled ligand.

Test [3] concerns the target T2, Adenosine receptor A2b (Homo sapiens, UniProt P29275).
T2 sequence (P29275 whole entry): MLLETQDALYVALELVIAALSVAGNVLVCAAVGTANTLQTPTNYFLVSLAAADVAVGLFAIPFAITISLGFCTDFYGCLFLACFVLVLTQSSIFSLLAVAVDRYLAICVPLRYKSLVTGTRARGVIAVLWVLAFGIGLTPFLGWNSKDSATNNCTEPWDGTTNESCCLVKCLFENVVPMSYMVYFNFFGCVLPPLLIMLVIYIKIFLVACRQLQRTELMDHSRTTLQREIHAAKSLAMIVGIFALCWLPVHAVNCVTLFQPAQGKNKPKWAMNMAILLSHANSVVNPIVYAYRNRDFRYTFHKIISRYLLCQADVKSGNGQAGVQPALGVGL
Nature of the test: Antagonist activity at human adenosine A2B receptor expressed in CHO cells assessed as inhibition of NECA-induced adenylyl cyclase activity. It is filed as functional, cell-based.

In test [4] the target is T3, Adenosine receptor A1 (Homo sapiens, UniProt P30542).
T3 sequence (P30542 whole entry): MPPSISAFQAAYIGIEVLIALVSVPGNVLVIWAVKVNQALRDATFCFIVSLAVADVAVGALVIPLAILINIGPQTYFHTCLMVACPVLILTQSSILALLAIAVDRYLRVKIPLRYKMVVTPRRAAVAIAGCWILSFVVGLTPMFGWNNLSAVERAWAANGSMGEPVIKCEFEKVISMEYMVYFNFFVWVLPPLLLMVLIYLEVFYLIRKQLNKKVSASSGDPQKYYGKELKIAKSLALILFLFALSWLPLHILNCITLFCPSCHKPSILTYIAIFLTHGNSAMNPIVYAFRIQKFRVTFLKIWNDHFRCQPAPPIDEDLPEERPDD
Nature of the test: Displacement of [3H]CCPA from human adenosine A1 receptor expressed in CHO cells. The class given is cell-based.

A value given as a limit tells only on which side of the number the result lay.

Chain of Adenosine receptor A2a (P29274 whole entry): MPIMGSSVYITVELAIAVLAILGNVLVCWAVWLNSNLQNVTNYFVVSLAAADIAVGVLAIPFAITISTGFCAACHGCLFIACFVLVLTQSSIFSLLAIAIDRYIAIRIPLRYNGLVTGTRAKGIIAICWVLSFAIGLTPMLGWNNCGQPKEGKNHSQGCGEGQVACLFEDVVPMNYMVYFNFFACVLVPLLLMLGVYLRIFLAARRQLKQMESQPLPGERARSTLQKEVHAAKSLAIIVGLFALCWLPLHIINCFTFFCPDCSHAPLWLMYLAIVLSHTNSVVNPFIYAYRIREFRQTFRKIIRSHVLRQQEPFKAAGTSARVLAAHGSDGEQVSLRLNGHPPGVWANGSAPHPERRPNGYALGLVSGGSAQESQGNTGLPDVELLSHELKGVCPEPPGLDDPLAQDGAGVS

By Ki is commonly meant a measure of affinity in units of concentration, obtained from inhibition or displacement. High values mean lower affinity, low ones higher affinity. A word on the IC50: it is the concentration needed to halve the response being measured. `Cn1cc2c(nc(NC(=O)Cc3cccc(Cl)c3)n3nc(-c4ccco4)nc23)n1`: the inhibition constant (Ki) is 30.5 nM in test [1], 1.94 nM in test [2] and 410 nM in test [4]. Further, the IC50 in test [3] was found to be 8960 nM.
The like results for `O=C(Cc1ccc(F)cc1)Nc1nc2nn(CCCc3ccccc3)cc2c2nc(-c3ccco3)nn12` were, in that order, 211 nM, 58.5 nM, 726 nM and over 50000 nM.
The like results for `CC(C)CCn1cc2c(nc(NC(=O)Cc3ccc(F)cc3)n3nc(-c4ccco4)nc23)n1` were, in that order, 3.69 nM, 116 nM, 51.8 nM and 5060 nM.
The like results for `O=C(Cc1ccc(-c2ccccc2)cc1)Nc1nc2nn(CCCc3ccccc3)cc2c2nc(-c3ccco3)nn12` were, in that order, 256 nM, 410 nM, 1170 nM and over 100000 nM.
For `CCCn1cc2c(nc(NC(=O)Cc3ccc(-c4ccccc4)cc3)n3nc(-c4ccco4)nc23)n1`, the Ki in test [1] was found to be 52.5 nM; in test [2], 65.4 nM; in test [4] it was 622 nM. The IC50 in test [3] was over 10000 nM.
Taken in the same sequence, the figures for `O=C(Cc1cccc2ccccc12)Nc1nc2nn(CCCc3ccccc3)cc2c2nc(-c3ccco3)nn12` were 305 nM, 343 nM, 710 nM and over 100000 nM.
The like results for `Cn1cc2c(nc(NC(=O)Cc3ccc(Cl)cc3)n3nc(-c4ccco4)nc23)n1` were, in that order, 156 nM, 12.7 nM, 1850 nM and over 50000 nM.
On to `CCCn1cc2c(nc(NC(=O)Cc3ccc4ccccc4c3)n3nc(-c4ccco4)nc23)n1`, for which the inhibitory constant (Ki) in test [1] is 7.99 nM; in test [2], 95.9 nM; in test [4] it was 160 nM. Further, in test [3], the IC50 was found to be 5370 nM.
Taken in the same sequence, the figures for `Cn1cc2c(nc(NC(=O)Cc3ccc(C(F)(F)F)cc3)n3nc(-c4ccco4)nc23)n1` were 75.9 nM, 1.22 nM, 768 nM and over 10000 nM.
Taken in the same sequence, the figures for `Cn1cc2c(nc(NC(=O)COc3ccc(Cl)cc3)n3nc(-c4ccco4)nc23)n1` were 39.3 nM, 223 nM, 963 nM and over 10000 nM.
Take `O=C(Cc1c(Cl)cccc1Cl)Nc1nc2nn(CCCc3ccccc3)cc2c2nc(-c3ccco3)nn12`: the values for the Ki in test [1], in test [2] and in test [4] were 186 nM, 601 nM and 786 nM, respectively. Further, the 50% inhibitory concentration (IC50) in test [3] is over 10000 nM.
The like results for `CC(C)CCn1cc2c(nc(NC(=O)C(c3ccccc3)c3ccccc3)n3nc(-c4ccco4)nc23)n1` were, in that order, 159 nM, 5.86 nM, 441 nM and over 10000 nM.
Taken in the same sequence, the figures for `Cn1cc2c(nc(NC(=O)Cc3cccs3)n3nc(-c4ccco4)nc23)n1` were 56 nM, 5.26 nM, 444 nM and over 10000 nM.
Regarding `CCCCn1cc2c(nc(NC(=O)Cc3ccc(-c4ccccc4)cc3)n3nc(-c4ccco4)nc23)n1`, the Ki in test [1] amounted to 39.6 nM; in test [2] it was 189 nM; in test [4] it was 381 nM. Further, in test [3], the IC50 turned out to be 8630 nM.
The like results for `CCCn1cc2c(nc(NC(=O)Cc3cccc4ccccc34)n3nc(-c4ccco4)nc23)n1` were, in that order, 38.7 nM, 17.3 nM, 388 nM and 12400 nM.
Taken in the same sequence, the figures for `O=C(Cc1ccc2ccccc2c1)Nc1nc2nn(CCCc3ccccc3)cc2c2nc(-c3ccco3)nn12` were 73.6 nM, 717 nM, 241 nM and over 50000 nM.
Taken in the same sequence, the figures for `O=C(Nc1nc2nn(CCc3ccccc3)cc2c2nc(-c3ccco3)nn12)C(c1ccccc1)c1ccccc1` were 53.1 nM, 6.49 nM, 115 nM and 5840 nM.
For the compound `CC(C)CCn1cc2c(nc(NC(=O)Cc3cccc(Cl)c3)n3nc(-c4ccco4)nc23)n1`, the results for the Ki in test [1], in test [2] and in test [4] were 1.86 nM, 273 nM and 13.7 nM, respectively. Also, in test [3], the IC50 was 1390 nM.
Taken in the same sequence, the figures for `CCn1cc2c(nc(NC(=O)Cc3ccc(-c4ccccc4)cc3)n3nc(-c4ccco4)nc23)n1` were 70.9 nM, 14.2 nM, 557 nM and over 50000 nM.
Turning to `Cn1cc2c(nc(NC(=O)Cc3c(Cl)cccc3Cl)n3nc(-c4ccco4)nc23)n1`, the inhibition constant Ki is 45.2 nM in test [1], 44.4 nM in test [2] and 908 nM in test [4]. For the same compound, in test [3], the IC50 turned out to be 6450 nM.
The like results for `O=C(Cc1ccc(Cl)cc1)Nc1nc2nn(CCCc3ccccc3)cc2c2nc(-c3ccco3)nn12` were, in that order, 89.9 nM, 30.5 nM, 256 nM and over 10000 nM.
The like results for `CC(C)CCn1cc2c(nc(NC(=O)Cc3ccc4ccccc4c3)n3nc(-c4ccco4)nc23)n1` were, in that order, 15.7 nM, 409 nM, 140 nM and over 10000 nM.
`CCCCn1cc2c(nc(NC(=O)C(c3ccccc3)c3ccccc3)n3nc(-c4ccco4)nc23)n1`: the Ki in test [1] was determined as 114 nM; in test [2], 1.2 nM; in test [4] it was 129 nM. Besides, the IC50 in test [3] came out at 780 nM.
The like results for `CCn1cc2c(nc(NC(=O)Cc3cccc4ccccc34)n3nc(-c4ccco4)nc23)n1` were, in that order, 74.6 nM, 3.05 nM, 596 nM and over 50000 nM.
On to `Cn1cc2c(nc(NC(=O)Cc3ccc(-c4ccccc4)cc3)n3nc(-c4ccco4)nc23)n1`, for which the figures for the Ki in test [1], in test [2] and in test [4] were 193 nM, 11.2 nM and 1460 nM, respectively. Besides, the half-maximal inhibitory concentration (IC50) in test [3] was over 10000 nM.
The like results for `CC(C)CCn1cc2c(nc(NC(=O)Cc3ccc(Cl)cc3)n3nc(-c4ccco4)nc23)n1` were, in that order, 2.75 nM, 56.5 nM, 22.6 nM and 1220 nM.
Take `O=C(Nc1nc2nn(CCCc3ccccc3)cc2c2nc(-c3ccco3)nn12)C(c1ccccc1)c1ccccc1`: the inhibition constant (Ki) came out at 326 nM in test [1], 12.6 nM in test [2] and 307 nM in test [4]. Also, the IC50 in test [3] is over 10000 nM.
For `O=C(Cc1ccc(-c2ccccc2)cc1)Nc1nc2nn(CCc3ccccc3)cc2c2nc(-c3ccco3)nn12`, the inhibition constant Ki in test [1] was 46.9 nM; in test [2], 125 nM; in test [4], 84.3 nM. The IC50 in test [3] came out at 11100 nM.
The like results for `CC(C)CCn1cc2c(nc(NC(=O)Cc3c(Cl)cccc3Cl)n3nc(-c4ccco4)nc23)n1` were, in that order, 18.7 nM, 207 nM, 121 nM and 1440 nM.
Turning to `CCCn1cc2c(nc(NC(=O)C(c3ccccc3)c3ccccc3)n3nc(-c4ccco4)nc23)n1`, the Ki turned out to be 46.5 nM in test [1], 0.93 nM in test [2] and 80.2 nM in test [4]. Moreover, the IC50 in test [3] was 491 nM.
The like results for `Cn1cc2c(nc(NC(=O)Cc3ccc(F)cc3)n3nc(-c4ccco4)nc23)n1` were, in that order, 54.1 nM, 0.97 nM, 741 nM and 13000 nM.
Taken in the same sequence, the figures for `CCn1cc2c(nc(NC(=O)Cc3ccsc3)n3nc(-c4ccco4)nc23)n1` were 23 nM, 765 nM, 154 nM and 9370 nM.
The like results for `Cn1cc2c(nc(NC(=O)Cc3ccsc3)n3nc(-c4ccco4)nc23)n1` were, in that order, 31.3 nM, 1.25 nM, 461 nM and 13700 nM.
In the case of `O=C(Cc1cccc(Cl)c1)Nc1nc2nn(CCCc3ccccc3)cc2c2nc(-c3ccco3)nn12`, the Ki stood at 182 nM in test [1], 110 nM in test [2] and 605 nM in test [4]. In addition, the IC50 in test [3] is 50000 nM.
